± gives the expanded uncertainty stated by the source.
Experiments:
[1] = 100 kPa, Liquid; for viscosity: Concentric cylinders viscometry; for mass density: Vibrating tube method
[2] = xn = mol fraction of the nth substance listed; conditions: 100 kPa, Liquid, x1 = 1; for viscosity: Concentric cylinders viscometry; for mass density: Vibrating tube method

Q: For `CCCCOC(C)=O` [butyl ethanoate], which viscosity ([1]; 293.15 K) is on record?
A: 0.732 ± 0.037 mPa·s

Q: What about the mass density ([1]; 293.15 K) of the same compound?
A: 881.1 ± 10 kg/m3

Q: What about the viscosity ([1]; 298.15 K) of the same compound?
A: 0.677 ± 0.034 mPa·s

Q: What about the mass density ([1]; 298.15 K) of the same compound?
A: 876 ± 10 kg/m3

Q: And the viscosity ([1]; 303.15 K)?
A: 0.628 ± 0.032 mPa·s

Q: What about the mass density ([1]; 303.15 K) of the same compound?
A: 870.9 ± 10 kg/m3

Q: What about the viscosity ([1]; 308.15 K) of the same compound?
A: 0.585 ± 0.03 mPa·s

Q: What about the mass density ([1]; 308.15 K) of the same compound?
A: 865.7 ± 10 kg/m3

Q: What about the viscosity ([1]; 313.15 K) of the same compound?
A: 0.546 ± 0.028 mPa·s

Q: And the mass density ([1]; 313.15 K)?
A: 860.5 ± 10 kg/m3

Q: And the viscosity ([1]; 318.15 K)?
A: 0.512 ± 0.026 mPa·s

Q: What about the mass density ([1]; 318.15 K) of the same compound?
A: 855.3 ± 10 kg/m3

Q: What about the viscosity ([1]; 323.15 K) of the same compound?
A: 0.485 ± 0.025 mPa·s

Q: What about the mass density ([1]; 323.15 K) of the same compound?
A: 850.1 ± 10 kg/m3

Q: What does the source list for `CCCCOC(C)=O` [butyl ethanoate] + CCCCCCCCCCO?
A: viscosity ([2]; 293.15 K): 0.732 ± 0.037 mPa·s; mass density ([2]; 293.15 K): 881.1 ± 10 kg/m3; viscosity ([2]; 298.15 K): 0.677 ± 0.034 mPa·s; mass density ([2]; 298.15 K): 876 ± 10 kg/m3; viscosity ([2]; 303.15 K): 0.628 ± 0.032 mPa·s; mass density ([2]; 303.15 K): 870.9 ± 10 kg/m3; viscosity ([2]; 308.15 K): 0.585 ± 0.03 mPa·s; mass density ([2]; 308.15 K): 865.7 ± 10 kg/m3; viscosity ([2]; 313.15 K): 0.546 ± 0.028 mPa·s; mass density ([2]; 313.15 K): 860.5 ± 10 kg/m3; viscosity ([2]; 318.15 K): 0.512 ± 0.026 mPa·s; mass density ([2]; 318.15 K): 855.3 ± 10 kg/m3; viscosity ([2]; 323.15 K): 0.485 ± 0.025 mPa·s; mass density ([2]; 323.15 K): 850.1 ± 10 kg/m3

Q: For `CCCCOC(C)=O` [butyl ethanoate] + CCCCCCCCCO, which viscosity ([2]; 293.15 K) is on record?
A: 0.732 ± 0.037 mPa·s

Q: What about the mass density ([2]; 293.15 K) of the same compound?
A: 881.1 ± 10 kg/m3

Q: And the viscosity ([2]; 298.15 K)?
A: 0.677 ± 0.034 mPa·s

Q: What about the mass density ([2]; 298.15 K) of the same compound?
A: 876 ± 10 kg/m3

Q: And the viscosity ([2]; 303.15 K)?
A: 0.628 ± 0.032 mPa·s

Q: And the mass density ([2]; 303.15 K)?
A: 870.9 ± 10 kg/m3

Q: And the viscosity ([2]; 308.15 K)?
A: 0.585 ± 0.03 mPa·s

Q: And the mass density ([2]; 308.15 K)?
A: 865.7 ± 10 kg/m3

Q: And the viscosity ([2]; 313.15 K)?
A: 0.546 ± 0.028 mPa·s

Q: And the mass density ([2]; 313.15 K)?
A: 860.5 ± 10 kg/m3

Q: And the viscosity ([2]; 318.15 K)?
A: 0.512 ± 0.026 mPa·s

Q: And the mass density ([2]; 318.15 K)?
A: 855.3 ± 10 kg/m3

Q: And the viscosity ([2]; 323.15 K)?
A: 0.485 ± 0.025 mPa·s

Q: And the mass density ([2]; 323.15 K)?
A: 850.1 ± 10 kg/m3

Q: Which results are given for `CCCCOC(C)=O` [butyl ethanoate] + CCCCCCCO?
A: viscosity ([2]; 293.15 K): 0.732 ± 0.037 mPa·s; mass density ([2]; 293.15 K): 881.1 ± 10 kg/m3; viscosity ([2]; 298.15 K): 0.677 ± 0.034 mPa·s; mass density ([2]; 298.15 K): 876 ± 10 kg/m3; viscosity ([2]; 303.15 K): 0.628 ± 0.032 mPa·s; mass density ([2]; 303.15 K): 870.9 ± 10 kg/m3; viscosity ([2]; 308.15 K): 0.585 ± 0.03 mPa·s; mass density ([2]; 308.15 K): 865.7 ± 10 kg/m3; viscosity ([2]; 313.15 K): 0.546 ± 0.028 mPa·s; mass density ([2]; 313.15 K): 860.5 ± 10 kg/m3; viscosity ([2]; 318.15 K): 0.512 ± 0.026 mPa·s; mass density ([2]; 318.15 K): 855.3 ± 10 kg/m3; viscosity ([2]; 323.15 K): 0.485 ± 0.025 mPa·s; mass density ([2]; 323.15 K): 850.1 ± 10 kg/m3

Q: Which viscosity ([1]; 293.15 K) does the source give for `CCCCCCCCCCO` [decan-1-ol] here?
A: 14.42 ± 0.72 mPa·s

Q: What about the mass density ([1]; 293.15 K) of the same compound?
A: 829.5 ± 10 kg/m3

Q: What about the viscosity ([1]; 298.15 K) of the same compound?
A: 11.8 ± 0.59 mPa·s

Q: And the mass density ([1]; 298.15 K)?
A: 826.1 ± 10 kg/m3

Q: What about the viscosity ([1]; 303.15 K) of the same compound?
A: 9.76 ± 0.49 mPa·s

Q: And the mass density ([1]; 303.15 K)?
A: 822.7 ± 10 kg/m3

Q: And the viscosity ([1]; 308.15 K)?
A: 8.14 ± 0.41 mPa·s

Q: What about the mass density ([1]; 308.15 K) of the same compound?
A: 819.3 ± 10 kg/m3

Q: What about the viscosity ([1]; 313.15 K) of the same compound?
A: 6.84 ± 0.34 mPa·s

Q: What about the mass density ([1]; 313.15 K) of the same compound?
A: 815.8 ± 10 kg/m3

Q: And the viscosity ([1]; 318.15 K)?
A: 5.8 ± 0.29 mPa·s

Q: And the mass density ([1]; 318.15 K)?
A: 812.4 ± 10 kg/m3

Q: And the viscosity ([1]; 323.15 K)?
A: 4.96 ± 0.25 mPa·s

Q: What about the mass density ([1]; 323.15 K) of the same compound?
A: 808.9 ± 10 kg/m3

From the NIST ThermoML archive (doi:10.1021/acs.jced.8b00524)
